Data reported in patent US10369149B2, “4-(2-amino-tetrahydronaphthalenyl)pyrimidine derivative, preparation method therefor, and pharmaceutical composition for preventing or treating cancer, containing same as active ingredient” (KOREA RESEARCH INSTITUTE OF CHEMICAL TECHNOLOGY, priority 2015, dated 2019).
Counter-ions that a name gives are not always drawn. Like-named read-outs stand apart in the source and are kept apart here.

What was measured:
ALK enzyme = ALK enzyme (Homo sapiens, UniProt Q9UM73); assay: Anaplastic lymphoma kinase (ALK) inhibitory activity, HTRF kinase assay; format: biochemical
[1] = test system: ALK L1196M cells containing ALK enzyme; assay: ALK inhibitory activity in ALK L1196M cells, SRB staining of live cells; format: cell-based
Experimental: DMSO (dimethylsulfoxide) was added to the well that was not loaded with the compound by the same amount as the compound. Three days after the addition of the compound, DMEM was eliminated. 10% TCA (trichloroacetic acid) was added to fix the cells. The wells were washed with running water three times and the live cells were stained with SRB solution (1× sulphorodamine B). Then, OD was measured to calculate the population of the live cells. IC50 of the experimental compound used in the experiment above was calculated by using prism software (Version 5.01, Graphpad). […] Table 2 presents the ALK inhibitory activity of the compounds of the examples of the present invention in ALK L1196M containing ALK enzyme.

[2] = test system: H3122, the non-small cell lung cancer cell line; assay: ALK inhibitory activity in H3122, SRB staining of live cells; format: cell-based; details: Homo sapiens
Experimental: […] One day later, the compound of the present invention was added to each well at different concentrations of 10 μM, 2 μM, 0.4 μM, 0.08 μM, […], and 0.00032 μM. DMSO (dimethylsulfoxide) was added to the well that was not loaded with the compound by the same amount as the compound. Three days after the addition of the compound, DMEM was eliminated. 10% TCA (trichloroacetic acid) was added to fix the cells. The wells were washed with running water three times and the live cells were stained with SRB solution (1× sulphorodamine B). Then, OD was measured to calculate the population of the live cells. IC50 of the experimental compound used in the experiment above was calculated by using prism software (Version 5.01, Graphpad).
Table 2 presents the ALK inhibitory activity of the compounds of the examples of the present invention in H3122 containing ALK enzyme.

Ba/F3 EML4-ALK L1196M = Ba/F3 EML4-ALK L1196M (Homo sapiens, UniProt Q9UM73, L1196M, cells depend on it); assay: ALK inhibitory activity in Ba/F3 EML4-ALK L1196M, SRB staining of live cells; details: read-out: Ba/F3 EML4-ALK L1196M, three days
Experimental: Particularly, 4,000 ALK L1196M cells containing ALK enzyme were distributed in each well of a 96 well plate together with 100 μl of DMEM (Dulbecco's Modified Eagle's Medium). […] DMSO (dimethylsulfoxide) was added to the well that was not loaded with the compound by the same amount as the compound. Three days after the addition of the compound, DMEM was eliminated. 10% TCA (trichloroacetic acid) was added to fix the cells. The wells were washed with running water three times and the live cells were stained with SRB solution (1× sulphorodamine B). Then, OD was measured to calculate the population of the live cells.

[3] = 72 h, ALK L1196M cells, three days, SRB, read-out: ALK L1196M
[4] = NCI-H3122, 72 h, three days, SRB, read-out: Non-small cell lung cancer cell line H3122
[5] = NCI-H3122, read-out: ALK inhibitory activity in H3122 containing ALK enzyme at the concentration range
[6] = read-out: anaplastic lymphoma kinase (ALK) inhibitory activity at the concentration
[7] = ALK L1196M cells, read-out: ALK inhibitory activity in ALK L1196M containing ALK enzyme at the concentration

Ba/F3 EML4-ALK L1196M, sequence (Q9UM73 whole entry L1196M): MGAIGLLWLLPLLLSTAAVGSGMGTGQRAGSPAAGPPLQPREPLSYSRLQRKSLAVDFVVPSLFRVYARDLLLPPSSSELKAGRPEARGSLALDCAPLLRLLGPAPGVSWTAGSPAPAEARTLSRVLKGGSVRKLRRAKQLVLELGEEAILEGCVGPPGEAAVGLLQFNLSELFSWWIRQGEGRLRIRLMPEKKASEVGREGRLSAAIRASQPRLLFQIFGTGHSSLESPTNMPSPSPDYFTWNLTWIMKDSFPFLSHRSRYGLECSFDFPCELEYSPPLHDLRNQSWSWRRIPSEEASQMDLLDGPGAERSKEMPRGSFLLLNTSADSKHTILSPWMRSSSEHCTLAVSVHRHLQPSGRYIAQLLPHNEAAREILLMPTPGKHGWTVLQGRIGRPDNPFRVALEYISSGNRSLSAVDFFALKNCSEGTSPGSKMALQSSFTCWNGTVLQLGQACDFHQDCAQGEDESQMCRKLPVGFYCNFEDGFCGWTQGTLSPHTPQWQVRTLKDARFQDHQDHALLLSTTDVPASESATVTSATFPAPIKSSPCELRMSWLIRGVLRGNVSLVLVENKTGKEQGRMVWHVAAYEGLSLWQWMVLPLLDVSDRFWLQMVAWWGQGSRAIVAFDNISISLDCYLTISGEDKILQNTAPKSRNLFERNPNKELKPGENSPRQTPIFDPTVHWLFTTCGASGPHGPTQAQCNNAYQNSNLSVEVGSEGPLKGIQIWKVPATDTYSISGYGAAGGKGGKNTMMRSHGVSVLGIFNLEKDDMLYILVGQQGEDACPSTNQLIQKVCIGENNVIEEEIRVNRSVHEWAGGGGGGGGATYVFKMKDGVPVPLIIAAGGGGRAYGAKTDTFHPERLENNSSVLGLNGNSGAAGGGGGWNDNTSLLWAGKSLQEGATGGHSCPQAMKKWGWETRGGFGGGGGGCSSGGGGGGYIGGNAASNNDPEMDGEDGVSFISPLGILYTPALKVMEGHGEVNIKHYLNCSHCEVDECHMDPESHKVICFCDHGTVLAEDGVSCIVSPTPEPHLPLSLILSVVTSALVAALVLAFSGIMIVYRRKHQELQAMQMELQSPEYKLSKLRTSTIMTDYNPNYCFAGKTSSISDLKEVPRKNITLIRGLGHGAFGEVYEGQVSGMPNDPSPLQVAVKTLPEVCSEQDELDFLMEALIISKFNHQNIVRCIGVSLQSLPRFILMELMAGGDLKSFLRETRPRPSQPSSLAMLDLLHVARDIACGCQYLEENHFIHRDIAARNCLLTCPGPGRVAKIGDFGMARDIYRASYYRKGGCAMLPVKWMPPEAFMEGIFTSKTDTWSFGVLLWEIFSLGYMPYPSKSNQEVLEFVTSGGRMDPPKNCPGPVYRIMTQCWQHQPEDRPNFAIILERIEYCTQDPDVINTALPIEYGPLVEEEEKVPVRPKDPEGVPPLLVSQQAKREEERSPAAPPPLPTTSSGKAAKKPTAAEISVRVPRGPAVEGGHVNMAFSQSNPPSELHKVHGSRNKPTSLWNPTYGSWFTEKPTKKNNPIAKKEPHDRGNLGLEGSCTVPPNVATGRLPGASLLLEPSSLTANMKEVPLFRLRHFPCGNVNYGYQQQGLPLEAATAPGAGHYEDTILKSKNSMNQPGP
ALK enzyme, sequence (Q9UM73 19-1620): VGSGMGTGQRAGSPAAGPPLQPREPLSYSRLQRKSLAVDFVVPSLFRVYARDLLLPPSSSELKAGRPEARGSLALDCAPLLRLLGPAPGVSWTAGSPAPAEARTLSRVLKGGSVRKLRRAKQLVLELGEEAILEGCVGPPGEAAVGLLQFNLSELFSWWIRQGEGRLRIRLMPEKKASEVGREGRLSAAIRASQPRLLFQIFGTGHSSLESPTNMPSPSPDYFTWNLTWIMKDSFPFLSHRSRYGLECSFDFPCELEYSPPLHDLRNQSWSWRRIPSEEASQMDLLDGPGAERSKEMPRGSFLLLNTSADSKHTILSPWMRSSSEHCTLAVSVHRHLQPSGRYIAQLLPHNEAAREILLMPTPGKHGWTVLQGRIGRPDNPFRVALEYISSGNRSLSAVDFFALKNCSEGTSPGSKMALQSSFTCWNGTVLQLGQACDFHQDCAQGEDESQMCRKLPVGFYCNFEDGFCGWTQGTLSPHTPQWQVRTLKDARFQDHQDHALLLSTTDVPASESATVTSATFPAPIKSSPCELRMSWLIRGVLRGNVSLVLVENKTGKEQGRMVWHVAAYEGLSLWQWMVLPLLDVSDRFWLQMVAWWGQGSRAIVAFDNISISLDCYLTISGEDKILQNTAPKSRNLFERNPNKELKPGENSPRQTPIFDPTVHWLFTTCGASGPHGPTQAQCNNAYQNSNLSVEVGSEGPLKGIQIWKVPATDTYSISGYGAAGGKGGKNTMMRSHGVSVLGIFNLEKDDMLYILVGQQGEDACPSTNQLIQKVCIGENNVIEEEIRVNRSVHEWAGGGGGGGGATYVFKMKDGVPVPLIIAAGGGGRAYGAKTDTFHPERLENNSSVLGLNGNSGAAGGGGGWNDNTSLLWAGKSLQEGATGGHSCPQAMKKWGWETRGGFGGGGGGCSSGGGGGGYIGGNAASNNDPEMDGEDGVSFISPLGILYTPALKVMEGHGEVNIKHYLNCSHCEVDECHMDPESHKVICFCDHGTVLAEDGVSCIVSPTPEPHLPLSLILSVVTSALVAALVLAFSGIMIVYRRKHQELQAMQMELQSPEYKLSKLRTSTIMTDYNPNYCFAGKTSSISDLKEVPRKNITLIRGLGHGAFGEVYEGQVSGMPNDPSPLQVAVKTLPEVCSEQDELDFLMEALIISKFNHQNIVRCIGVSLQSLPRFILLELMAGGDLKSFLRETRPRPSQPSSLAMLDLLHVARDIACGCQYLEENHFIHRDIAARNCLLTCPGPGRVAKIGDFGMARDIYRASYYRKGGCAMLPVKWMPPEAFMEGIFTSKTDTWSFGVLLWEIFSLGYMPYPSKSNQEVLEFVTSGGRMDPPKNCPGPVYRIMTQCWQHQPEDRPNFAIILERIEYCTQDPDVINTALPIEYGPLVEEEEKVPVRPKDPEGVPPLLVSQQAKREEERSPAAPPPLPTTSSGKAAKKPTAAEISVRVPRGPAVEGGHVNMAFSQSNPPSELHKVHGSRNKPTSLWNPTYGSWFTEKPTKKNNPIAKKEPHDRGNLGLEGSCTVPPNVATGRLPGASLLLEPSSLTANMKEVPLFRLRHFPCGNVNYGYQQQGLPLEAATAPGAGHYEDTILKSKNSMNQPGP

Row | SMILES | IC50 (ALK enzyme; HTRF, read-out: ALK) | IC50 [1, 3] | IC50 [2, 4] | IC50 [2, 5] | GI50 (Ba/F3 EML4-ALK L1196M) | IC50 ([1]; 72 h, read-out: ALK L1196M) | IC50 (ALK enzyme; [6]) | IC50 [1, 7]
1 | COc1cc2c(cc1Nc1ncc(Cl)c(Nc3ccccc3S(=O)(=O)C(C)C)n1)CCC(O)C2(C)C (stereo not shown) [Example 24, 6-(5-chloro-4-(2-(isopropylsulfonyl)phenylamino)pyrimidine-2-ylamino)-7-methoxy-1,1-dimethyl-1,2,3,4-tetrahydronaphthalene-2-ol] | 0.01 to 0.1 µM | 0.01 to 0.1 µM | 0.01 to 0.1 µM | 0.01 to 0.1 µM | > 0.1 µM | – | – | –
2 | COc1cc2c(cc1Nc1ncc(Cl)c(Nc3ccccc3S(=O)(=O)C(C)C)n1)C(C)(C)C(NC(=O)C(F)(F)F)CC2 (stereo not shown) [Example 7, N-(7-(5-chloro-4-(2-(isopropylsulfonyl)phenylamino)pyrimidine-2-ylamino)-6-methoxy-1,1-dimethyl-1,2,3,4-tetrahydronaphthalene-2-yl)-2,2,2-trifluoroacetamide] | > 0.1 µM | > 0.1 µM | > 0.1 µM | – | > 0.1 µM | – | – | –
3 | COc1cc2c(cc1Nc1ncc(Cl)c(Nc3ccccc3S(=O)(=O)C(C)C)n1)C(=O)C(N1CCOCC1)CC2 (stereo not shown) [Example 3, 7-(5-chloro-4-(2-(isopropylsulfonyl)phenylamino)pyrimidine-2-ylamino)6-methoxy-2-morpholino-3,4-dihydronaphthalene-1(2H)-one] | 0.01 to 0.1 µM | – | > 0.1 µM | – | > 0.1 µM | > 0.1 µM | – | –
4 | COc1cc2c(cc1Nc1ncc(Cl)c(Nc3ccccc3S(=O)(=O)C(C)C)n1)C(C)(C)/C(=N/NC(=N)N)CC2 [Example 18, (E)-2-(7-(5-chloro-4-(2-(isopropylsulfonyl)phenylamino)pyrimidine-2-ylamino)-6-methoxy-1,1-dimethyl-3,4-dihydronaphthalene-2(1H)-yladene)hydrogencarboxamideamide] | 0.01 to 0.1 µM | 0.01 to 0.1 µM | > 0.1 µM | – | > 0.1 µM | – | – | –
5 | COc1cc2c(cc1Nc1ncc(Cl)c(Nc3ccccc3S(=O)(=O)C(C)C)n1)CC/C(=N\NC(C)=O)C2(C)C [Example 9, (E)-N-(6-(5-chloro-4-(2-(isopropylsulfonyl)phenylamino)pyrimidine-2-ylamino)-7-methoxy-1,1-dimethyl-3,4-dihydronaphthalene-2(1H)-yladene)acetohydrazide] | 0.01 to 0.1 µM | 0.01 to 0.1 µM | > 0.1 µM | – | > 0.1 µM | – | – | –
6 | COc1cc2c(cc1Nc1ncc(Cl)c(Nc3ccccc3S(=O)(=O)C(C)C)n1)CCC(N(C)C)C2(C)C (stereo not shown) [Example 28, 5-chloro-N2-(6-(dimethylamino)-3-methoxy-5,5-dimethyl-5,6,7,8-tetrahydronaphthalene-2-yl)-N4-(2-(isopropylsulfonyl)phenyl)pyrimidine-2,4-diamine] | < 0.01 µM | < 0.01 µM | 0.01 to 0.1 µM | 0.01 to 0.1 µM | 0.01 to 0.1 µM | – | ≤ 0.01 µM | ≤ 0.01 µM
7 | COc1cc2c(cc1Nc1ncc(Cl)c(Nc3ccccc3S(=O)(=O)C(C)C)n1)CC/C(=N\N)C2(C)C [Example 13, (E)-5-chloro-N2-(6-hydrazono-3-methoxy-5,5-dimethyl-5,6,7,8-tetrahydronaphthalene-2-yl)-N4-(2-(isopropylsulfonyl)phenyl)pyrimidine-2,4-diamine hydrochloride] | 0.01 to 0.1 µM | 0.01 to 0.1 µM | 0.01 to 0.1 µM | 0.01 to 0.1 µM | > 0.1 µM | – | – | –
8 | COc1cc2c(cc1Nc1ncc(Cl)c(Nc3ccccc3S(=O)(=O)C(C)C)n1)CCC(NC(=N)N)C2(C)C (stereo not shown) [Example 31] | – | < 0.01 µM | > 0.1 µM | – | > 0.1 µM | – | – | –
9 | COc1cc2c(cc1Nc1ncc(Cl)c(Nc3ccccc3S(=O)(=O)C(C)C)n1)CCC(NC=N)C2(C)C (stereo not shown) [Example 29, N-(6-((5-chloro-4-((2-(isopropylsulfonyl)phenyl)amino)pyridine-2-yl)amino)-7-methoxy-1,1-dimethyl-1,2,3,4-tetrahydronaphthalene-2yl)formimideamide] | – | < 0.01 µM | 0.01 to 0.1 µM | – | > 0.1 µM | – | – | –
10 | COc1cc2c(cc1Nc1ncc(Cl)c(Nc3ccccc3S(=O)(=O)C(C)C)n1)CCC(NC(C)=N)C2(C)C (stereo not shown) [Example 30] | – | < 0.01 µM | 0.01 to 0.1 µM | – | > 0.1 µM | – | – | –
11 | COc1cc2c(cc1Nc1ncc(Cl)c(Nc3ccccc3S(=O)(=O)C(C)C)n1)CCC(NC(=O)C(F)(F)F)C2(C)C (stereo not shown) [Example 4, N-(6-(5-chloro-4-(2-(isopropylsulfonyl)phenylamino)pyrimidine-2-ylamino)-7-methoxy-1,1-dimethyl-1,2,3,4-tetrahydronaphthalene-2-yl)-2,2,2-trifluoroacetamide] | > 0.1 µM | > 0.1 µM | > 0.1 µM | – | > 0.1 µM | – | – | –
12 | COc1cc2c(cc1Nc1ncc(Cl)c(Nc3ccccc3S(=O)(=O)C(C)C)n1)CC/C(=N\NC(=O)OC(C)(C)C)C2(C)C [Example 12, (E)-tert-but 2-(6-(5-chloro-4-(2-(isopropylsulfonyl)phenylamino)pyrimidine-2-ylamino)-7-methoxy-1,1-dimethyl-3,4-dihydronaphthalene-2(1H)-yladene)hydrazinecarboxylate] | > 0.1 µM | – | > 0.1 µM | – | > 0.1 µM | – | – | –
13 | COc1cc2c(cc1Nc1ncc(Cl)c(Nc3ccccc3S(=O)(=O)C(C)C)n1)C(C)(C)C(O)CC2 (stereo not shown) [Example 25, 7-(5-chloro-4-(2-(isopropylsulfonyl)phenylamino)pyrimidine-2-ylamino)-6-methoxy-1,1-dimethyl-1,2,3,4-tetrahydronaphthalene-2-ol] | 0.01 to 0.1 µM | 0.01 to 0.1 µM | > 0.1 µM | – | > 0.1 µM | – | – | –
14 | COc1cc2c(cc1Nc1ncc(Cl)c(Nc3ccccc3S(=O)(=O)C(C)C)n1)CC/C(=N\NC(=N)N)C2(C)C [Example 11, (E)-2-(6-(5-chloro-4-(2-(isopropylsulfonyl)phenylamino)pyrimidine-2-ylamino)-7-methoxy-1,1-dimethyl-3,4-dihydronaphthalene-2(1H)-yladene)hydrogencarboxamideamide] | 0.01 to 0.1 µM | 0.01 to 0.1 µM | > 0.1 µM | – | > 0.1 µM | – | – | –
15 | COc1cc2c(cc1Nc1ncc(Cl)c(Nc3ccccc3S(=O)(=O)C(C)C)n1)C(C)(C)/C(=N/NC(N)=O)CC2 [Example 21, (E)-2-(7-(5-chloro-4-(2-(isopropylsulfonyl)phenylamino)pyrimidine-2-ylamino)-6-methoxy-1,1-dimethyl-3,4-dihydronaphthalene-2(1H)-yladene)hydragencarboxamide] | < 0.01 µM | 0.01 to 0.1 µM | > 0.1 µM | – | > 0.1 µM | – | ≤ 0.01 µM | –
16 | COc1cc2c(cc1Nc1ncc(Cl)c(Nc3ccccc3S(=O)(=O)C(C)C)n1)CCC(N1CCNCC1)C2 (stereo not shown) [Example 2, 5-chloro-N4-(2-(isopropylsulfonyl)phenyl)-N2-(3-methoxy-6-(piperazine-1-yl)-5,6,7,8-tetrahydronaphthalene-2-yl)pyrimidine-2,4-diamine] | – | < 0.01 µM | 0.01 to 0.1 µM | 0.01 to 0.1 µM | – | – | – | ≤ 0.01 µM
17 | COc1cc2c(cc1Nc1ncc(Cl)c(Nc3ccccc3S(=O)(=O)C(C)C)n1)CCC(NC(=O)CO)C2(C)C (stereo not shown) [Example 26, N-(6-(5-chloro-4-(2-(isopropylsulfonyl)phenylamino)pyrimidine-2-ylamino)-7-methoxy-1,1-dimethyl-1,2,3,4-tetrahydronaphthalene-2-yl)-2-hydroxyacetamide] | < 0.01 µM | < 0.01 µM | 0.01 to 0.1 µM | 0.01 to 0.1 µM | 0.01 to 0.1 µM | – | ≤ 0.01 µM | ≤ 0.01 µM
18 | COc1cc2c(cc1Nc1ncc(Cl)c(Nc3ccccc3S(=O)(=O)C(C)C)n1)CCC(=O)C2(C)C [Example 5, 6-(5-chloro-4-(2-(isopropylsulfonyl)phenylamino)pyrimidine-2-ylamino)-7-methoxy-1,1-dimethyl-3,4-dihydronaphthalene-2(1H)-one] | – | – | 0.01 to 0.1 µM | 0.01 to 0.1 µM | – | – | – | –
19 | COc1cc2c(cc1Nc1ncc(Cl)c(Nc3ccccc3S(=O)(=O)C(C)C)n1)CC/C(=N\O)C2(C)C [Example 8, (E)-6-(5-chloro-4-(2-(isopropylsulfonyl)phenylamino)pyrimidine-2-ylamino)-7-methoxy-1,1-dimethyl-3,4-dihydronaphthalene-2(1H)-one oxime] | > 0.1 µM | – | > 0.1 µM | – | > 0.1 µM | – | – | –
20 | COc1cc2c(cc1Nc1ncc(Cl)c(Nc3ccccc3S(=O)(=O)C(C)C)n1)C(C)(C)C(=O)CC2 [Example 6, 7-(5-chloro-4-(2-(isopropylsulfonyl)phenylamino)pyrimidine-2-ylamino)-6-methoxy-1,1-dimethyl-3,4-dihydronaphthalene-2(1H)-one] | – | – | > 0.1 µM | – | – | – | – | –
